Publication PMC12681378, “Transcriptomic and enzymological evidence for plastid peptidoglycan synthesis in the gymnosperm Picea abies” (The Plant Journal, 2025)

Key:
Type in all cases: biochemical
[1] = molecular target: T1, PpMurE-TP_Avi_His (1.1T) (Physcomitrium patens, UniProt Q3LHI5); experiment: Amplex Red phosphate-release coupled assay; NADH assay; details: 30 C, pH 7.6, 10 mM MgCl2, ATP
T1 construct: gene MurE; from Leu63; transit peptide removed; E. coli

[2] = molecular target: T2, Pseudomonas aeruginosa MurE (Pseudomonas aeruginosa, UniProt Q59650); experiment: as above; details: 30 C, pH 7.6, 10 mM MgCl2, ATP
T2 construct: cloned into pET21; E. coli
T2 sequence (Q59650 1-487): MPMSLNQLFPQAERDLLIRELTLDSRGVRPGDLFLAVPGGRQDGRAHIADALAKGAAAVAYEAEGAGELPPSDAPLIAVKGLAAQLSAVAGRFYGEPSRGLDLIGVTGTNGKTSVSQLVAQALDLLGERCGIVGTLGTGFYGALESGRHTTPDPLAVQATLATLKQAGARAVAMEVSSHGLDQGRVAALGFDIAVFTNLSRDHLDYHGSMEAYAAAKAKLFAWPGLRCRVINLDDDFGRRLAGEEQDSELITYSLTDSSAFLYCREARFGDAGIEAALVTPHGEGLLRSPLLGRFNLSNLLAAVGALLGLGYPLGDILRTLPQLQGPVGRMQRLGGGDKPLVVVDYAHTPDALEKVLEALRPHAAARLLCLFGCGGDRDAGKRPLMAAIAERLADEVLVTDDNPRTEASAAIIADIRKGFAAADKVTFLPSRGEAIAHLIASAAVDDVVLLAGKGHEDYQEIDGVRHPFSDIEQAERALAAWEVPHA

[3] = molecular target: T3, His_AnMurE (46T) (Nostoc sp. PCC 7120 = FACHB-418, UniProt Q8YWF0); experiment: Amplex Red phosphate-release coupled assay; details: 30 C, pH 7.6, 10 mM MgCl2, ATP, UDP-MurNAc-L-Ala-D-Glu
T3 construct: gene murE; N-terminal His tag (pPROEX); E. coli
T3 sequence (Q8YWF0 1-496): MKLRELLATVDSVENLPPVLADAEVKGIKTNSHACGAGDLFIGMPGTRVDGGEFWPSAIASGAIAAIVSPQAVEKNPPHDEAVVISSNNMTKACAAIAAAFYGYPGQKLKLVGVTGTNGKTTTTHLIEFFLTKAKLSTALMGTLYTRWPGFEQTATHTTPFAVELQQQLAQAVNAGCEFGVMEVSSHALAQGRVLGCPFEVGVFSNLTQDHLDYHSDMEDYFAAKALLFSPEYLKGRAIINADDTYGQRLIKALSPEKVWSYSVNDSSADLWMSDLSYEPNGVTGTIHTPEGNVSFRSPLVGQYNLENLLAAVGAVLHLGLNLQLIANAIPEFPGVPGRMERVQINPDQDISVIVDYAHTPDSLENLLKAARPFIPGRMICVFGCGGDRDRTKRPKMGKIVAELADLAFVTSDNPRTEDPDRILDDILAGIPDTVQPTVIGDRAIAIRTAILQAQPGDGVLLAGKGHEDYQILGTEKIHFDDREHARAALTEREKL

[4] = molecular target: T4, Streptococcus pneumoniae MurE (Streptococcus pneumoniae, UniProt Q8CWQ5); experiment: Amplex Red phosphate-release coupled assay; details: 30 C, pH 7.6, 10 mM MgCl2, ATP
T4 construct: cloned into pET21; E. coli
T4 sequence (Q8CWQ5 1-481): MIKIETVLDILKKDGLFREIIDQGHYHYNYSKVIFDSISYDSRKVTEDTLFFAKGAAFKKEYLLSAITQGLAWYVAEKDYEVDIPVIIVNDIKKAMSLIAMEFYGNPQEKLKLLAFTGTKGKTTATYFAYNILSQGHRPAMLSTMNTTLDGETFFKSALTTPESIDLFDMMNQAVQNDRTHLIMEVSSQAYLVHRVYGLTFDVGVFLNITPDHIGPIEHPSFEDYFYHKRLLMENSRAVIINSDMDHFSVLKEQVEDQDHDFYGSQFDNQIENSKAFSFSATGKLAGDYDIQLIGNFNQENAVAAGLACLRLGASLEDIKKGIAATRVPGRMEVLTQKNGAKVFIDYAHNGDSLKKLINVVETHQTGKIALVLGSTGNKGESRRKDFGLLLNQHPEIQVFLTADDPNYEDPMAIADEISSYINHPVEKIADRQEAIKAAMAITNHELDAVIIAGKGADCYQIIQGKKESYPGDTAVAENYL

[5] = molecular target: T3, His_AnMurE (46T); experiment: inhibition seen in Amplex Red coupled assay; details: product inhibition; 30 C, pH 7.6

T1 sequence (Q3LHI5 entry or part of it): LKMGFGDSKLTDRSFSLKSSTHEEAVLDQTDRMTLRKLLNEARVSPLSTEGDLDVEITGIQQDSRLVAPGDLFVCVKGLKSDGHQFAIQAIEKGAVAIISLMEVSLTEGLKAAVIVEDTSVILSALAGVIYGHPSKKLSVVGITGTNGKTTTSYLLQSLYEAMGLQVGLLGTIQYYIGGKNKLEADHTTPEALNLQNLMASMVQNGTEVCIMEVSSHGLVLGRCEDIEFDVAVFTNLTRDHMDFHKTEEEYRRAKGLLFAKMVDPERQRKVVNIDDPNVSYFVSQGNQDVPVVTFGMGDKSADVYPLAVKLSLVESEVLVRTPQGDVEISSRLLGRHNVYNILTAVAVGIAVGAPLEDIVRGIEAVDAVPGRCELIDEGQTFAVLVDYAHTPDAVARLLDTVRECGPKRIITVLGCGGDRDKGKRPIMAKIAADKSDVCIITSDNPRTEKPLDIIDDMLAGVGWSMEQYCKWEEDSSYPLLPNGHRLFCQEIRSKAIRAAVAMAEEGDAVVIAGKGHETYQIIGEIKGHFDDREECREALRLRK

N[C@H](CCC[C@H](N)C(=O)O)C(=O)O [D, L-diaminopimelate]
Amplex Red phosphate-release coupled assay; NADH assay ([1]; UDP-MurNAc-L-Ala-D-Glu): predominant substrate for both the moss, PpMurE, and cyanobacterial, AnMurE, ligases | Amplex Red phosphate-release coupled assay; NADH assay ([2]; UDP-MurNAc-L-Ala-D-Glu): an order of magnitude less active than Pseudomonas aeruginosa MurE | Amplex Red phosphate-release coupled assay [3]: D, L‐lanthionine was equally as efficiently incorporated as D, L‐DAP by Anabaena MurE

N[C@@H](CSC[C@H](N)C(=O)O)C(=O)O (racemic) [D, L-lanthionine]
Amplex Red phosphate-release coupled assay [3]: D, L‐lanthionine was equally as efficiently incorporated as D, L‐DAP by Anabaena MurE

CC(=O)N[C@H]1[C@@H](OP(=O)(O)OP(=O)(O)OC[C@H]2O[C@@H](n3ccc(=O)[nH]c3=O)[C@H](O)[C@@H]2O)O[C@H](CO)[C@@H](O)[C@@H]1O[C@H](C)C(=O)N[C@@H](C)C(=O)N[C@H](CCC(=O)O)C(=O)O [UDP-N-acetylmuramoyl-L-alanyl-D-glutamate]
Amplex Red phosphate-release coupled assay; NADH assay ([1]; D,L-DAP): UDP‐N‐acetylmuramoyl‐L‐alanyl‐D‐glutamate as the recipient molecule | Amplex Red phosphate-release coupled assay ([4]; L-lysine): L‐lysine as substrates with UDP‐N‐acetylmuramoyl‐L‐alanyl‐D‐glutamate as the acceptor | Amplex Red phosphate-release coupled assay; NADH assay ([2]; D,L-DAP): D, L‐DAP) and UDP‐N‐acetylmuramoyl‐ L‐alanyl‐D‐glutamate as substrates

Nc1ncnc2c1ncn2[C@@H]1O[C@H](COP(=O)(O)OP(=O)(O)O)[C@@H](O)[C@H]1O [ADP]
inhibition seen in Amplex Red coupled assay [5]: an observed inhibitory effect of ADP on AnMurE in the Amplex Red assay

NCCCC[C@H](N)C(=O)O [L-lysine]
Amplex Red phosphate-release coupled assay ([4]; UDP-MurNAc-L-Ala-D-Glu): able to utilize both L‐hydroxylysine and L‐lysine as substrates
